This is an account of results in patent publication US8940685B2, “Method for preparing active peptides from corn germ proteins” (China National Research Institute of Food and Fermentation …, priority 2011, dated 2015).

pIC50: −log10 of the molar value.

What is called pIC50 is the IC50 on a negative log10 scale, so that one unit is a factor of ten.

Data set [1] deals with spontaneous hypertension rats. As to the kind of experiment: antihypertensive effect on spontaneous hypertension rat, 8 weeks of continuous gavage. The data set is classed as in vivo. The settings on record: for blood pressure: Captopril group 10 mg/kg.bw gavage, n = 8. As to the method:
The blank control group was gavaged with the same volume of distilled water, and the positive control group was gavaged with 10 mg/kg.bw captopril.

In the next data set the target is ACE (Homo sapiens, UniProt P12821). The settings on record: read-out: in vitro antihypertensive activity IC50; cited from earlier work.
The test system of another data set is SHR. The settings on record: oral gavage 50 mg/kg, after two hours; cited from earlier work.
[2] abbreviates: after 8 weeks of continuous gavage, each group, P>0.05.

Sequence of ACE (P12821 30-1306, species assumed): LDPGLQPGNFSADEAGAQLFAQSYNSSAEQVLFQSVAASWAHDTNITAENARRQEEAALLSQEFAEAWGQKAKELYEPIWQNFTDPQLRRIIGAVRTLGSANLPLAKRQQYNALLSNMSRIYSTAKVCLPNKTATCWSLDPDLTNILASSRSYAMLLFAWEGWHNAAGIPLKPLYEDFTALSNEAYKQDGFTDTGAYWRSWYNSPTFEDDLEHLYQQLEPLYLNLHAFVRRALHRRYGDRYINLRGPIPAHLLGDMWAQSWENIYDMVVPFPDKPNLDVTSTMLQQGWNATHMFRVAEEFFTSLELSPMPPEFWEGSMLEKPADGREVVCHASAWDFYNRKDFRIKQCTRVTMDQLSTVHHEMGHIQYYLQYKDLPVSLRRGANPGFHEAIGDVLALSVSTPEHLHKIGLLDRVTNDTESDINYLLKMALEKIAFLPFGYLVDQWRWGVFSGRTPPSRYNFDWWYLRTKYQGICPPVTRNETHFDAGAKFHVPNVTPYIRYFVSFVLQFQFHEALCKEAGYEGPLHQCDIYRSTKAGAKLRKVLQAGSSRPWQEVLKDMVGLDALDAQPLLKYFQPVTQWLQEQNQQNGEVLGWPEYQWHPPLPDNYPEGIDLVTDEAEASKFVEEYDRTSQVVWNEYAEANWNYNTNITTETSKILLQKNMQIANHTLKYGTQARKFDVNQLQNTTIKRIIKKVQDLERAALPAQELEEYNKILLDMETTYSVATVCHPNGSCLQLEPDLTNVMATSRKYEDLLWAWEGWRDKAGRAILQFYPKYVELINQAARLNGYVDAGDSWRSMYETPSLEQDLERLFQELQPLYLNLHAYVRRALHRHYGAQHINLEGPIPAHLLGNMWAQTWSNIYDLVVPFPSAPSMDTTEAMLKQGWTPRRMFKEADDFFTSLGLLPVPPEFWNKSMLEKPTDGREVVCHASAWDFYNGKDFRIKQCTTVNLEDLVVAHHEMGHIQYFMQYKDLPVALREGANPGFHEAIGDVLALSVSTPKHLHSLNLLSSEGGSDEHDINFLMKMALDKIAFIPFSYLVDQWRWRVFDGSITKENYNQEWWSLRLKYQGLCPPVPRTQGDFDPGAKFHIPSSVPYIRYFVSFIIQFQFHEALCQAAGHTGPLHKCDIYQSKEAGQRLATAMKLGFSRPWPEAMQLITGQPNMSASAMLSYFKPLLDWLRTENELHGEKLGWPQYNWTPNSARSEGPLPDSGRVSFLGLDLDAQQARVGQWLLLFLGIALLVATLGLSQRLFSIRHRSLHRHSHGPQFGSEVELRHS

Regarding `C[C@H](CS)C(=O)N1CCC[C@H]1C(=O)O` [Captopril, captopril], the blood pressure in data set [1] (0w) was 193 ± 6 mmHg; in data set [1] (1w), 184 ± 16 mmHg; in data set [1] (2w) it was 177 ± 9 mmHg; in data set [1] (3w) it was 174 ± 12 mmHg; in data set [1] (4w), 170 ± 14 mmHg; in data set [1] (5w), 168 ± 12 mmHg. Further, the blood pressure in data set [1] (6w) worked out at 164 ± 17 mmHg; in data set [1] (7w), 162 ± 15 mmHg; in data set [1] (8w), 161 ± 16 mmHg. Moreover, the body weight result in data set [1] (setting [2]) is “no significant change”. For the same molecule, in data set [1] (setting [2]), the heart rate entry is “no significant change”. Further, the heart/body weight ratio result in data set [1] (setting [2]) is given as “no significant change”. Besides, in data set [1] (captopril group 10 mg/kg.bw, n=8, P<0.01), the “Serum aldosterone concentration vs control group” value was “significantly lower”.

On to alanine-Tyrosine [AY], for which the negative logarithm of the IC50 (pIC50) at ACE was 4.85. The “drop of blood pressure” value in the data set with SHR is 9.5 mmHg.
